Measurements as given in ChEMBL document CHEMBL4622849, “Discovery of ethyl ketone-based HDACs 1, 2, and 3 selective inhibitors for HIV latency reactivation” (Bioorg Med Chem Lett, 2020).
pEC50, pIC50: −log10 of the molar value.

Key:
[1] = test system: Human immunodeficiency virus; test: microbe, parasite or virus in culture; type: functional, organism-based; details: Human immunodeficiency virus 1, 2C4
Description: Reactivation of HIV latency infected in human 2C4 cells in presence of 0.1 % NHS by luciferase reporter gene assay

[2] = test system: Human immunodeficiency virus; test: microbe, parasite or virus in culture; type: functional, organism-based; details: Human immunodeficiency virus 1, 2C4; remark: listed apart in the source
[3] = target: Histone deacetylase 2 (Homo sapiens, UniProt Q92769)
Chain of Histone deacetylase 2 (Q92769 whole entry): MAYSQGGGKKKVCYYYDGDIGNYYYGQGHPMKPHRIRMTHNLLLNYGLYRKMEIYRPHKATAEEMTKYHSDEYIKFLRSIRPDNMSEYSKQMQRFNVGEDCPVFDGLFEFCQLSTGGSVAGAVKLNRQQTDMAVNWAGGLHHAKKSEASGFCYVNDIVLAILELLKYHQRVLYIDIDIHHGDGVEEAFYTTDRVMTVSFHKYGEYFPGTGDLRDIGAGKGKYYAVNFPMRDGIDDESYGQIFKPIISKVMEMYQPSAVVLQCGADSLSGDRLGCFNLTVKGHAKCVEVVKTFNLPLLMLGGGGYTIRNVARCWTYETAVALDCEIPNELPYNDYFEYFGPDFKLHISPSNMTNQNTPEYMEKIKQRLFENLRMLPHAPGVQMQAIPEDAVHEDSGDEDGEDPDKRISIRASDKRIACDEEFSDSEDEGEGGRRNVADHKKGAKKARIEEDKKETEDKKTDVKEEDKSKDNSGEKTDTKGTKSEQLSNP
Description: Inhibition of HDAC2 (unknown origin)

[4] = target: T1, Protein deacetylase HDAC6 (Homo sapiens, UniProt Q9UBN7); type: ADME
T1 sequence (Q9UBN7 whole entry): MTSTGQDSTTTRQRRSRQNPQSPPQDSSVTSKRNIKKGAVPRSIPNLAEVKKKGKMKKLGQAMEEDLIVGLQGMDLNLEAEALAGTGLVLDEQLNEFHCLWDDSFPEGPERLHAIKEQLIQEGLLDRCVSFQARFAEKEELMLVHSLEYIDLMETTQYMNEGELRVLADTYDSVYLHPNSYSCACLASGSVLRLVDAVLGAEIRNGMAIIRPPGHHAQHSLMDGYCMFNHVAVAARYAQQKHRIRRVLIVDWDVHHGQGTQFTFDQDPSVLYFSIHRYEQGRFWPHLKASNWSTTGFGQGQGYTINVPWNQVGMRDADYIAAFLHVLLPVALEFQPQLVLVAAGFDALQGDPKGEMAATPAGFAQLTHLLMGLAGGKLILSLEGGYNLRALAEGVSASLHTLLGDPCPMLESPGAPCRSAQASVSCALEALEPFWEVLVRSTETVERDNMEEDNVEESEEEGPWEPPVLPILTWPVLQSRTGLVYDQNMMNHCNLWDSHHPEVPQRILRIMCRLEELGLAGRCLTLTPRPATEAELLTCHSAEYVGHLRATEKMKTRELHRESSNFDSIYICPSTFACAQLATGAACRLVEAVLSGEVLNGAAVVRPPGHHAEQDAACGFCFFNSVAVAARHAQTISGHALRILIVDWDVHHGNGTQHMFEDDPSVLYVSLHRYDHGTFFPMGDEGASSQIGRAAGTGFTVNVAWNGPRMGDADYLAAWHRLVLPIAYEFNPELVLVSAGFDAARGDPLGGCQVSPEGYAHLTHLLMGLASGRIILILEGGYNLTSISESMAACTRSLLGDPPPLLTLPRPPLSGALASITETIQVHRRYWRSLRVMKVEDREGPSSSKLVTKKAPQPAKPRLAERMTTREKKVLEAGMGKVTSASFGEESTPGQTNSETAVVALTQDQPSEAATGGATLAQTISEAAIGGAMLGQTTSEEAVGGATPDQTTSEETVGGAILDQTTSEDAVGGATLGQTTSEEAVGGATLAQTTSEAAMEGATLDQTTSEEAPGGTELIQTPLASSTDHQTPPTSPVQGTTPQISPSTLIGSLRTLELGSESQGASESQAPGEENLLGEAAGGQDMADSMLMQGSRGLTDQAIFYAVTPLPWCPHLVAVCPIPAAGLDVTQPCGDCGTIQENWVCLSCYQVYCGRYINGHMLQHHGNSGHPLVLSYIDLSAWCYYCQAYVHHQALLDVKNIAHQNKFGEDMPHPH
Description: Inhibition of HDAC6 (unknown origin)

[5] = target: T2, Histone deacetylase 8 (Homo sapiens, UniProt Q9BY41); type: ADME
T2 sequence (Q9BY41 whole entry): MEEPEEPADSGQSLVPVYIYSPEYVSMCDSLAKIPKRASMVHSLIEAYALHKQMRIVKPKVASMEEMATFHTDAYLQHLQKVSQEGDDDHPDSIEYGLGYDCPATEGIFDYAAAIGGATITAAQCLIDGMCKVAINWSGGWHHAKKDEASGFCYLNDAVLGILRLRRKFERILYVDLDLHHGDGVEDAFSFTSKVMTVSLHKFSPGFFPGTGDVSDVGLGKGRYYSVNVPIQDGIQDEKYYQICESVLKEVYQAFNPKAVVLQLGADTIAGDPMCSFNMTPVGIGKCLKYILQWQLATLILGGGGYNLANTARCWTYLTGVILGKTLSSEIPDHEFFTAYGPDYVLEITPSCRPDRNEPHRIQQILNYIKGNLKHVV
Description: Inhibition of HDAC8 (unknown origin)

[6] = target: Histone deacetylase 1 (Homo sapiens, UniProt Q13547)
Chain of Histone deacetylase 1 (Q13547 whole entry): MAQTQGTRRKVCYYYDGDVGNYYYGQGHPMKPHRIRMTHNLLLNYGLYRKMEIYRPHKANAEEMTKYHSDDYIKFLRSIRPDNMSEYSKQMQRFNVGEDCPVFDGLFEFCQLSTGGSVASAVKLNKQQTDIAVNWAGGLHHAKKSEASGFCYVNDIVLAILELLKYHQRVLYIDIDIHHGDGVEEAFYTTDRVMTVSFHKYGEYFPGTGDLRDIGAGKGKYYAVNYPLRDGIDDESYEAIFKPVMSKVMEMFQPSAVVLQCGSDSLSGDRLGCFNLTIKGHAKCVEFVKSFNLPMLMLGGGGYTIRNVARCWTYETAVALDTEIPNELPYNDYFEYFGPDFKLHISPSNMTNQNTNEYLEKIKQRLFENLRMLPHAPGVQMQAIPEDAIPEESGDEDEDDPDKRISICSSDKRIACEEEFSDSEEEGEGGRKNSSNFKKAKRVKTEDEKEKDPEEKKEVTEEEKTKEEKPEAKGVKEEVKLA
Description: Inhibition of HDAC1 (unknown origin)

[7] = AUC in Wistar Han rat at 10 mg/kg, po; type: ADME, organism-based; details: in vivo
[8] = Cmax in Wistar Han rat at 10 mg/kg, po; type: ADME, organism-based; design: dose 10 mg/kg, route oral; details: in vivo
[9] = Half life in Wistar Han rat at 2 mg/kg, iv or 10 mg/kg, po; type: ADME, organism-based; details: in vivo
[10] = Clearance in Wistar Han rat at 2 mg/kg, iv or 10 mg/kg, po; type: ADME, organism-based; details: in vivo
[11] = Oral bioavailability in Wistar Han rat at 10 mg/kg; type: ADME, organism-based; details: in vivo
[12] = AUC in Beagle dog at 2 mg/kg, po; type: ADME, organism-based, Canis lupus familiaris; details: in vivo
[13] = Cmax in Beagle dog at 2 mg/kg, po; type: ADME, organism-based, Canis lupus familiaris; design: dose 2 mg/kg, route oral; details: in vivo
[14] = Half life in Beagle dog at 1 mg/kg, iv or 2 mg/kg, po; type: ADME, organism-based, Canis lupus familiaris; details: in vivo
[15] = Clearance in Beagle dog at 1 mg/kg, iv or 2 mg/kg, po; type: ADME, organism-based, Canis lupus familiaris; details: in vivo
[16] = Oral bioavailability in Beagle dog at 2 mg/kg; type: ADME, organism-based, Canis lupus familiaris; details: in vivo

pEC50 [1]	pEC50 [2]	Structure (SMILES)	further results
6.96	6.32	CCC(=O)CCCCC[C@H](NC(=O)C1CN(C)C1)c1ncc(-c2cc3ccccc3nc2OC)[nH]1	
6.95	6.14	CCC(=O)CCCCC[C@H](NC(=O)[C@H]1CC12CCN(CC(F)(F)F)CC2)c1ncc(-c2cc3ccccc3nc2OC)[nH]1	
7.09	6.49	CCC(=O)CCCCC[C@H](NC(=O)[C@H]1CC12CCCN(C)C2)c1ncc(-c2cc3ccccc3nc2OC)[nH]1 (some centres undefined)	
6.90	6.03	CCC(=O)CCCCC[C@H](NC(=O)C1=NOC2(CCN(C)CC2)C1)c1ncc(-c2cc3ccccc3nc2OC)[nH]1	pIC50 [3]: 8.28
7.14	6.49	CCC(=O)CCCCC[C@H](NC(=O)[C@H]1C[C@@]12CCN(C)C2)c1ncc(-c2cc3ccccc3nc2OC)[nH]1	
5.91	5.73	CCC(=O)CCCCC[C@H](NC(=O)[C@H]1CC12CCN(CC)CC2)c1nnc(-c2cc3ccccc3nc2OC)[nH]1	pIC50 [4]: 7.02; pIC50 [5]: 5.52
5.81	5.01	CCC(=O)CCCCC[C@H](NC(=O)[C@H]1CC12CCN(C(C)=O)CC2)c1ncc(-c2cc3ccccc3nc2OC)[nH]1	pIC50 [4]: 5.93; pIC50 [5]: 5.64
6.81	6.20	CCC(=O)CCCCC[C@H](NC(=O)[C@H]1CC12CN(C)C2)c1ncc(-c2cc3ccccc3nc2OC)[nH]1	pIC50 [4]: 6.52; pIC50 [5]: 5.69
6.59	6.00	CCC(=O)CCCCC[C@H](NC(=O)[C@@H]1CC12CCCN(C)C2)c1ncc(-c2cc3ccccc3nc2OC)[nH]1 (some centres undefined)	
7.07	6.16	CCC(=O)CCCCC[C@H](NC(=O)C1CCC2(CC1)CN(C)C2)c1ncc(-c2cc3ccccc3nc2OC)[nH]1	
7.37	6.96	CCC(=O)CCCCC[C@H](NC(=O)[C@H]1CCC12CCN(CC)CC2)c1ncc(-c2cc3ccccc3nc2OC)[nH]1	
7.13	6.54	CCC(=O)CCCCC[C@H](NC(=O)[C@@H]1CC12CN(C)C2)c1ncc(-c2cc3ccccc3nc2OC)[nH]1	
6.89	6.09	CCC(=O)CCCCC[C@H](NC(=O)CC1CC2(C1)CN(C)C2)c1ncc(-c2cc3ccccc3nc2OC)[nH]1	pIC50 [6]: 9.00
7.21	6.56	CCC(=O)CCCCC[C@H](NC(=O)[C@H]1CC12CCN(Cc1cccnc1)CC2)c1ncc(-c2cc3ccccc3nc2OC)[nH]1	
6.47	5.86	CCC(=O)CCCCC[C@H](NC(=O)[C@@H]1CC12CCN(C)CC2)c1ncc(-c2cc3ccccc3nc2OC)[nH]1	
6.81	6.05	CCCN1CCC2(CC1)C[C@@H]2C(=O)N[C@@H](CCCCCC(=O)CC)c1ncc(-c2cc3ccccc3nc2OC)[nH]1	
6.51	5.94	CCC(=O)CCCCC[C@H](NC(=O)[C@@H]1C[C@@]12CCN(C)C2)c1ncc(-c2cc3ccccc3nc2OC)[nH]1	
5.79	5.59	CCC(=O)CCCCC[C@H](NC(=O)[C@H]1CC12CCN(C)CC2)c1nnc(-c2cc3ccccc3nc2OC)[nH]1	pIC50 [4]: 7.04; pIC50 [5]: 5.71

pEC50 [1]	pEC50 [2]	Structure (SMILES)	further results
6.89	6.08	CCC(=O)CCCCC[C@H](NC(=O)C1CC2(C1)CN(C)C2)c1ncc(-c2cc3ccccc3nc2OC)[nH]1	
7.44	7.22	CCC(=O)CCCCC[C@H](NC(=O)[C@H]1CC12CCC(N(C)C)CC2)c1ncc(-c2cc3ccccc3nc2OC)[nH]1 (some centres undefined)	pIC50 [4]: 6.44; pIC50 [5]: 7.12
7.59	7.08	CCC(=O)CCCCC[C@H](NC(=O)[C@H]1CC12CCN(C)CC2)c1ncc(-c2cc3ccccc3nc2OC)[nH]1	pIC50 [4]: 6.80; AUC [7]: 2.1 µM·h; Cmax [8]: 630 nM; half-life [9]: 6.6 h; clearance [10]: 22 mL/min/kg; bioavailability [11]: 13%; AUC [12]: 1.8 µM·h; Cmax [13]: 690 nM; half-life [14]: 7.2 h; clearance [15]: 8.5 mL/min/kg; bioavailability [16]: 22.4%
7.11	6.46	CCC(=O)CCCCC[C@H](NC(=O)[C@H]1CC12CCN(CCC(F)(F)F)CC2)c1ncc(-c2cc3ccccc3nc2OC)[nH]1	
7.49	7.24	CCC(=O)CCCCC[C@H](NC(=O)[C@H]1CC12CCN(C(C)C)CC2)c1ncc(-c2cc3ccccc3nc2OC)[nH]1	
7.14	6.63	CCC(=O)CCCCC[C@H](NC(=O)[C@H]1C[C@]12CCN(C)C2)c1ncc(-c2cc3ccccc3nc2OC)[nH]1	
7.13	6.76	CCC(=O)CCCCC[C@H](NC(=O)[C@H]1CC12CCN(Cc1ccccc1)CC2)c1ncc(-c2cc3ccccc3nc2OC)[nH]1	
6.16	6.16	CCC(=O)CCCCC[C@H](NC(=O)[C@H]1CC12CCN(C)CC2)c1nnc(-c2cc3ccccc3nc2OC)o1	pIC50 [5]: 4.35
6.58	5.94	CCC(=O)CCCCC[C@H](NC(=O)[C@@H]1C[C@]12CCN(C)C2)c1ncc(-c2cc3ccccc3nc2OC)[nH]1	pIC50 [4]: 6.83
6.19	5.30	CCC(=O)CCCCC[C@H](NC(=O)[C@@H]1CC12CCOCC2)c1ncc(-c2cc3ccccc3nc2OC)[nH]1	
6.36	5.94	CCC(=O)CCCCC[C@H](NC(=O)[C@@H]1CC12CCC(N(C)C)CC2)c1ncc(-c2cc3ccccc3nc2OC)[nH]1 (some centres undefined)	pIC50 [4]: 6.12; pIC50 [5]: 5.25
6.79	6.14	CCC(=O)CCCCC[C@H](NC(=O)[C@@H]1CCC12CCN(CC)CC2)c1ncc(-c2cc3ccccc3nc2OC)[nH]1	pIC50 [4]: 6.29; pIC50 [5]: 5.63
6.71	6.51	CCC(=O)CCCCC[C@H](NC(=O)[C@H]1CC12CCN(C)CC2)c1ncc(-c2cc3ccccc3nc2OC)o1	pIC50 [6]: 8.82; pIC50 [3]: 8.33; AUC [7]: 6.77 µM·h; Cmax [8]: 700 nM; half-life [9]: 3.2 h; clearance [10]: 11 mL/min/kg; bioavailability [11]: 20.6%
6.95	6.74	CCC(=O)CCCCC[C@H](NC(=O)[C@H]1CC12CCN(Cc1ccc(OC)cc1)CC2)c1ncc(-c2cc3ccccc3nc2OC)[nH]1	
6.95	6.82	CCC(=O)CCCCC[C@H](NC(=O)[C@H]1CC12CCN(CC)CC2)c1ncc(-c2cc3ccccc3nc2OC)o1	AUC [7]: 14 µM·h; Cmax [8]: 1430 nM; half-life [9]: 8.6 h; clearance [10]: 15 mL/min/kg; bioavailability [11]: 68.9%
7.82	7.52	CCC(=O)CCCCC[C@H](NC(=O)[C@H]1CC12CCN(CC1CC1)CC2)c1ncc(-c2cc3ccccc3nc2OC)[nH]1	
6.63	5.75	CCC(=O)CCCCC[C@H](NC(=O)[C@H]1CC12CCOCC2)c1ncc(-c2cc3ccccc3nc2OC)[nH]1	
6.79	6.51	CCC(=O)CCCCC[C@H](NC(=O)[C@H]1CC12CCN(C(C)C)CC2)c1ncc(-c2cc3ccccc3nc2OC)o1	pIC50 [6]: 8.46
